According to ChEMBL document CHEMBL1127063, “NMR and computational evidence that high-affinity bradykinin receptor antagonists adopt C-terminal beta-turns” (J Med Chem, 1993):

What was measured:
B2 bradykinin receptor = target: T1, B2 bradykinin receptor (Cavia porcellus, UniProt O70526); assay: In vitro binding affinity against bradykinin receptor B2 from guinea pig ileum.; type: tissue-based
T1 sequence (O70526 whole entry): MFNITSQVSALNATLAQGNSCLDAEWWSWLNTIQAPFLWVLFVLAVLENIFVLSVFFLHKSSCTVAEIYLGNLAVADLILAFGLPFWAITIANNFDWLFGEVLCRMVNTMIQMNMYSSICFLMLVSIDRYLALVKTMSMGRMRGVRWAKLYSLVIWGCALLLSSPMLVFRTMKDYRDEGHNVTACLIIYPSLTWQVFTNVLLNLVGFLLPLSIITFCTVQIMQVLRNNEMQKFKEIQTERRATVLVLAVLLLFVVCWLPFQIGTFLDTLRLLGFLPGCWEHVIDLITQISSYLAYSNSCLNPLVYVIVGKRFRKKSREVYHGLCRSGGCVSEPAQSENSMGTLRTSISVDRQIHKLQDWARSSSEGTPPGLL

Cavia porcellus = organism: Cavia porcellus; assay: pA2 value against guinea pig ileum.; type: functional; conditions: read-out: pA2 (converted)

Ki (B2 bradykinin receptor) | Structure (SMILES) | Kb (Cavia porcellus)
0.11 nM | NC(N)=NCCC[C@@H](N)C(=O)N[C@@H](CCCN=C(N)N)C(=O)N1CCC[C@H]1C(=O)N1C[C@H](O)C[C@H]1C(=O)NCC(=O)N[C@@H](Cc1cccs1)C(=O)N[C@@H](CO)C(=O)N1Cc2ccccc2C[C@@H]1C(=O)N1[C@H](C(=O)N[C@@H](CCCN=C(N)N)C(=O)O)C[C@@H]2CCCC[C@@H]21 [ICATIBANT] | 2 nM
0.16 nM | CCCO[C@H]1C[C@H](C(=O)N2[C@H](C(=O)N[C@@H](CCCNC(=N)N)C(=O)O)C[C@@H]3CCCC[C@@H]32)N(C(=O)[C@H](CO)NC(=O)[C@H](Cc2cccs2)NC(=O)CNC(=O)[C@@H]2C[C@@H](O)CN2C(=O)[C@@H]2CCCN2C(=O)[C@H](CCCNC(=N)N)NC(=O)[C@H](N)CCCNC(=N)N)C1 | 3.16 nM
0.75 nM | NC(N)=NCCC[C@@H](N)C(=O)N[C@@H](CCCN=C(N)N)C(=O)N1CCC[C@H]1C(=O)N1CCC[C@H]1C(=O)NCC(=O)N[C@@H](Cc1ccccc1)C(=O)N[C@@H](CO)C(=O)N[C@H](Cc1ccccc1)C(=O)N1C2CCCCC2C[C@H]1C(=O)N[C@@H](CCCN=C(N)N)C(=O)O (stereo partly specified) | 5.01 nM
